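A five-concentration, 48-hour dose response in 96-well plates underlies each endpoint, interpolated linearly between surrounding concentrations. TGI marks complete inhibition of growth.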
Legend:
Assay in all cases: NCI-60 cell line screen, 48 h
A498 renal = tested on: A498 renal
MDA-N = tested on: MDA-N
DU-145 prostate = tested on: DU-145 prostate
SK-MEL-28 melanoma = tested on: SK-MEL-28 melanoma
MOLT-4 leukemia = tested on: MOLT-4 leukemia
CAKI-1 renal = tested on: CAKI-1 renal
SNB-75 CNS = tested on: SNB-75 CNS
HS 578T breast = tested on: HS 578T breast
NCI-H522 lung = tested on: NCI-H522 lung
UACC-62 melanoma = tested on: UACC-62 melanoma
M14 melanoma = tested on: M14 melanoma
HCC-2998 colon = tested on: HCC-2998 colon
SNB-19 CNS = tested on: SNB-19 CNS
PC-3 prostate = tested on: PC-3 prostate
UACC-257 melanoma = tested on: UACC-257 melanoma
SK-OV-3 ovarian = tested on: SK-OV-3 ovarian
MDA-MB-435 = tested on: MDA-MB-435
SF-295 CNS = tested on: SF-295 CNS
KM12 colon = tested on: KM12 colon
A549 NSCLC = tested on: A549 NSCLC
NCI/ADR-RES ovarian = tested on: NCI/ADR-RES ovarian
NCI-H23 lung = tested on: NCI-H23 lung
MDA-MB-231 breast = tested on: MDA-MB-231 breast
SK-MEL-5 melanoma = tested on: SK-MEL-5 melanoma
ACHN renal = tested on: ACHN renal
HCT-116 colon = tested on: HCT-116 colon
UO-31 renal = tested on: UO-31 renal
TK-10 renal = tested on: TK-10 renal
HOP-62 NSCLC = tested on: HOP-62 NSCLC
RXF 393 renal = tested on: RXF 393 renal
OVCAR-3 ovarian = tested on: OVCAR-3 ovarian
SW-620 colon = tested on: SW-620 colon
K-562 leukemia = tested on: K-562 leukemia
SF-268 CNS = tested on: SF-268 CNS
HT29 colon = tested on: HT29 colon
LOX IMVI melanoma = tested on: LOX IMVI melanoma
T-47D breast = tested on: T-47D breast
OVCAR-8 ovarian = tested on: OVCAR-8 ovarian
SR leukemia = tested on: SR leukemia
HCT-15 colon = tested on: HCT-15 colon
SN12C renal = tested on: SN12C renal
HL-60(TB) leukemia = tested on: HL-60(TB) leukemia
NCI-H226 lung = tested on: NCI-H226 lung
IGROV1 ovarian = tested on: IGROV1 ovarian
RPMI-8226 leukemia = tested on: RPMI-8226 leukemia
CCRF-CEM leukemia = tested on: CCRF-CEM leukemia
MALME-3M melanoma = tested on: MALME-3M melanoma
U251 CNS = tested on: U251 CNS
HOP-92 NSCLC = tested on: HOP-92 NSCLC
SK-MEL-2 melanoma = tested on: SK-MEL-2 melanoma
COLO 205 colon = tested on: COLO 205 colon
786-0 renal = tested on: 786-0 renal
NCI-H460 lung = tested on: NCI-H460 lung
SF-539 CNS = tested on: SF-539 CNS
MCF7 breast = tested on: MCF7 breast
BT-549 breast = tested on: BT-549 breast
EKVX NSCLC = tested on: EKVX NSCLC
OVCAR-4 ovarian = tested on: OVCAR-4 ovarian
OVCAR-5 ovarian = tested on: OVCAR-5 ovarian

CN(C)Cc1cc(N=Nc2ccc(Cl)cc2)cc(CN(C)C)c1O
TGI (A498 renal): 29.8 µM | TGI (MDA-N): 29.2 µM | TGI (DU-145 prostate): 35.4 µM | TGI (SK-MEL-28 melanoma): 23.9 µM | TGI (MOLT-4 leukemia): 10.7 µM | TGI (CAKI-1 renal): 26.8 µM | TGI (SNB-75 CNS): 25.8 µM | TGI (HS 578T breast): 27.7 µM | TGI (NCI-H522 lung): 5.97 µM | TGI (UACC-62 melanoma): 30.2 µM | TGI (M14 melanoma): 37.6 µM | TGI (HCC-2998 colon): 23.6 µM | TGI (SNB-19 CNS): 25.5 µM | TGI (PC-3 prostate): 18.8 µM | TGI (UACC-257 melanoma): 31.5 µM | TGI (SK-OV-3 ovarian): 33.3 µM | TGI (MDA-MB-435): 24.6 µM | TGI (SF-295 CNS): 24.7 µM | TGI (KM12 colon): 20.7 µM | TGI (A549 NSCLC): 21.3 µM | TGI (NCI/ADR-RES ovarian): 13.6 µM | TGI (NCI-H23 lung): 40.7 µM | TGI (MDA-MB-231 breast): 20.9 µM | TGI (SK-MEL-5 melanoma): 21.1 µM | TGI (ACHN renal): 19 µM | TGI (HCT-116 colon): 17.5 µM | TGI (UO-31 renal): 7.23 µM | TGI (TK-10 renal): 21.3 µM | TGI (HOP-62 NSCLC): 14.6 µM | TGI (RXF 393 renal): 25.1 µM | TGI (OVCAR-3 ovarian): 6.78 µM | TGI (SW-620 colon): 21.1 µM | TGI (K-562 leukemia): 6.75 µM | TGI (SF-268 CNS): 30.3 µM | TGI (HT29 colon): 19 µM | TGI (LOX IMVI melanoma): 16.1 µM | TGI (T-47D breast): 33.6 µM | TGI (OVCAR-8 ovarian): 12.7 µM | TGI (SR leukemia): 22.8 µM | TGI (HCT-15 colon): 21 µM | TGI (SN12C renal): 23.8 µM | TGI (HL-60(TB) leukemia): 4.94 µM | TGI (NCI-H226 lung): 17.7 µM | TGI (IGROV1 ovarian): 12 µM | TGI (RPMI-8226 leukemia): 37 µM | TGI (CCRF-CEM leukemia): 7 µM | TGI (MALME-3M melanoma): 28.6 µM | TGI (U251 CNS): 19.8 µM | TGI (HOP-92 NSCLC): 21.7 µM | TGI (SK-MEL-2 melanoma): 27.8 µM | TGI (COLO 205 colon): 13.4 µM | TGI (786-0 renal): 17.9 µM | TGI (NCI-H460 lung): 18.1 µM | TGI (SF-539 CNS): 23.2 µM | TGI (MCF7 breast): 21.3 µM | TGI (BT-549 breast): 23.8 µM

Cc1ccc(N(C)S(=O)(=O)c2ccccc2[N+](=O)[O-])cc1
TGI (MDA-N): > 100 µM | TGI (DU-145 prostate): > 100 µM | TGI (SK-MEL-28 melanoma): > 100 µM | TGI (CAKI-1 renal): > 100 µM | TGI (NCI-H522 lung): 94.6 µM | TGI (M14 melanoma): 44.5 µM | TGI (SNB-19 CNS): > 100 µM | TGI (PC-3 prostate): > 100 µM | TGI (UACC-257 melanoma): > 100 µM | TGI (MDA-MB-435): > 100 µM | TGI (SF-295 CNS): > 100 µM | TGI (KM12 colon): > 100 µM | TGI (A549 NSCLC): > 100 µM | TGI (NCI/ADR-RES ovarian): > 100 µM | TGI (NCI-H23 lung): > 100 µM | TGI (MDA-MB-231 breast): > 100 µM | TGI (ACHN renal): > 100 µM | TGI (HCT-116 colon): > 100 µM | TGI (UO-31 renal): > 100 µM | TGI (TK-10 renal): > 100 µM | TGI (HOP-62 NSCLC): > 100 µM | TGI (RXF 393 renal): > 100 µM | TGI (OVCAR-3 ovarian): > 100 µM | TGI (SW-620 colon): > 100 µM | TGI (SF-268 CNS): > 100 µM | TGI (HT29 colon): > 100 µM | TGI (LOX IMVI melanoma): > 100 µM | TGI (T-47D breast): > 100 µM | TGI (OVCAR-8 ovarian): > 100 µM | TGI (SR leukemia): > 100 µM | TGI (HCT-15 colon): > 100 µM | TGI (SN12C renal): > 100 µM | TGI (EKVX NSCLC): > 100 µM | TGI (HL-60(TB) leukemia): > 100 µM | TGI (NCI-H226 lung): > 100 µM | TGI (OVCAR-4 ovarian): > 100 µM | TGI (RPMI-8226 leukemia): > 100 µM | TGI (MALME-3M melanoma): > 100 µM | TGI (U251 CNS): > 100 µM | TGI (SK-MEL-2 melanoma): > 100 µM | TGI (COLO 205 colon): > 100 µM | TGI (786-0 renal): > 100 µM | TGI (NCI-H460 lung): > 100 µM | TGI (SF-539 CNS): > 100 µM | TGI (MCF7 breast): > 100 µM | TGI (OVCAR-5 ovarian): > 100 µM | TGI (BT-549 breast): 61.7 µM

CC1(C)[C@@H]2C[C@H]1c1cnc(-c3ccccn3)cc1C2CCCCC[C@@H]1c2cc(-c3ccccn3)ncc2[C@@H]2C[C@H]1C2(C)C (stereo partly drawn)
TGI (A498 renal): 8.92 µM | TGI (MDA-N): 97.1 µM | TGI (DU-145 prostate): > 100 µM | TGI (SK-MEL-28 melanoma): > 100 µM | TGI (MOLT-4 leukemia): > 100 µM | TGI (CAKI-1 renal): > 30.3 µM | TGI (SNB-75 CNS): > 22.6 µM | TGI (NCI-H522 lung): > 100 µM | TGI (UACC-62 melanoma): > 34 µM | TGI (M14 melanoma): > 22.1 µM | TGI (HCC-2998 colon): > 100 µM | TGI (SNB-19 CNS): > 100 µM | TGI (PC-3 prostate): > 100 µM | TGI (SK-OV-3 ovarian): > 100 µM | TGI (MDA-MB-435): > 100 µM | TGI (SF-295 CNS): 7.33 µM | TGI (KM12 colon): > 100 µM | TGI (A549 NSCLC): > 36.7 µM | TGI (NCI/ADR-RES ovarian): > 100 µM | TGI (MDA-MB-231 breast): 89 µM | TGI (SK-MEL-5 melanoma): > 38.5 µM | TGI (ACHN renal): > 100 µM | TGI (HCT-116 colon): 31.3 µM | TGI (UO-31 renal): > 22.2 µM | TGI (TK-10 renal): > 100 µM | TGI (HOP-62 NSCLC): > 69.2 µM | TGI (RXF 393 renal): 45.5 µM | TGI (OVCAR-3 ovarian): > 100 µM | TGI (SW-620 colon): > 100 µM | TGI (K-562 leukemia): > 100 µM | TGI (SF-268 CNS): > 100 µM | TGI (HT29 colon): > 33.3 µM | TGI (LOX IMVI melanoma): 19.3 µM | TGI (T-47D breast): > 100 µM | TGI (OVCAR-8 ovarian): > 100 µM | TGI (SR leukemia): > 100 µM | TGI (HCT-15 colon): > 100 µM | TGI (SN12C renal): > 44.9 µM | TGI (EKVX NSCLC): > 100 µM | TGI (HL-60(TB) leukemia): 5.76 µM | TGI (NCI-H226 lung): 7.53 µM | TGI (OVCAR-4 ovarian): > 100 µM | TGI (IGROV1 ovarian): 46.1 µM | TGI (RPMI-8226 leukemia): 19.6 µM | TGI (CCRF-CEM leukemia): 6.28 µM | TGI (MALME-3M melanoma): > 100 µM | TGI (U251 CNS): > 100 µM | TGI (SK-MEL-2 melanoma): > 88.6 µM | TGI (COLO 205 colon): > 32.8 µM | TGI (786-0 renal): 11.5 µM | TGI (NCI-H460 lung): 24.9 µM | TGI (SF-539 CNS): 0.456 µM | TGI (MCF7 breast): > 100 µM | TGI (OVCAR-5 ovarian): > 100 µM | TGI (BT-549 breast): > 100 µM

— PubChem BioAssay (NCI)
